Reference: patent publication US9725416B2, “Ethynyl derivatives” (Hoffmann-La Roche Inc., priority 2014, dated 2017)

Molecular target: T1, human mGlu4 receptor (Homo sapiens, UniProt Q14833)
T1 construct: expressed in transfected cells; host or cells: HEK-293 (monoclonal, stably transfected)
Assay: Ca2+ mobilization in vitro assay on recombinant human mGlu4 expressed in HEK293 cells (mGlu4 PAM)
Type: cell-based
Details: for Emax: HEK293, maximal response in % of the maximal stimulatory effect obtained with saturating concentrations of L-AP4, read-out: Eff. (%); for EC50: HEK-293 cells, Ca2+ mobilization, L-AP4 added at EC20
Protocol: Determination of EC50 Values Using a Ca2+ mobilization in vitro Assay on Recombinant Human mGlu4 Expressed in HEK293 cells:
A monoclonal HEK-293 cell line stably transfected with a cDNA encoding for the human mGlu4 receptor was generated; for the work with mGlu4 Positive Allosteric Modulators (PAMs), a cell line with low receptor expression levels and low constitutive receptor activity was selected to allow the differentiation of agonistic versus PAM activity. Cells were cultured according to standard protocols (Freshney, 2000) in Dulbecco's Modified Eagle Medium with high glucose supplemented with 1 mM glutamine, 10% (vol/vol) heat-inactivated bovine calf serum, Penicillin/Streptomycin, 50 μg/ml hygromycin and 15 μg/ml blasticidin (all cell culture reagents and antibiotics from Invitrogen, Basel, Switzerland).
About 24 hrs before an experiment, 5×10^4 cells/well were seeded in poly-D-lysine coated, black/clear-bottomed 96-well plates. The cells were loaded with 2.5 μM Fluo-4AM in loading buffer (1×HBSS, 20 mM HEPES) for 1 hr at 37° C. and washed five times with loading buffer. The cells were transferred into a Functional Drug Screening System 7000 (Hamamatsu, Paris, France), and 11 half logarithmic serial dilutions of test compound at 37° C. were added and the cells were incubated for 10-30 min. with on-line recording of fluorescence. Following this pre-incubation step, the agonist (2S)-2-amino-4-phosphonobutanoic acid (L-AP4) was added to the cells at a concentration corresponding to EC20 with on-line recording of fluorescence; in order to account for day-to-day variations in the responsiveness of cells, the EC20 of L-AP4 was determined immediately ahead of each experiment by recording of a full dose-response curve of L-AP4.
Responses were measured as peak increase in fluorescence minus basal (i.e. fluorescence without addition of L-AP4), normalized to the maximal stimulatory effect obtained with saturating concentrations of L-AP4. Graphs were plotted with the % maximal stimulatory using XLfit, a curve fitting program that iteratively plots the data using Levenburg Marquardt algorithm. The single site competition analysis equation used was y=A+((B−A)/(1+((x/C)D))), where y is the % maximal stimulatory effect, A is the minimum y, B is the maximum y, C is the EC50, x is the log 10 of the concentration of the competing compound and D is the slope of the curve (the Hill Coefficient). From these curves the EC50 (drug concentration at which 50% of the maximal receptor activation was achieved), the Hill coefficient as well as the maximal response in % of the maximal stimulatory effect obtained with saturating concentrations of L-AP4 were calculated (see FIG. 1).
A depression of the signal observed after addition of the EC20 concentration of L-AP4was indicative of an inhibitory activity of the test compound.

T1 sequence (Q14833 33-912): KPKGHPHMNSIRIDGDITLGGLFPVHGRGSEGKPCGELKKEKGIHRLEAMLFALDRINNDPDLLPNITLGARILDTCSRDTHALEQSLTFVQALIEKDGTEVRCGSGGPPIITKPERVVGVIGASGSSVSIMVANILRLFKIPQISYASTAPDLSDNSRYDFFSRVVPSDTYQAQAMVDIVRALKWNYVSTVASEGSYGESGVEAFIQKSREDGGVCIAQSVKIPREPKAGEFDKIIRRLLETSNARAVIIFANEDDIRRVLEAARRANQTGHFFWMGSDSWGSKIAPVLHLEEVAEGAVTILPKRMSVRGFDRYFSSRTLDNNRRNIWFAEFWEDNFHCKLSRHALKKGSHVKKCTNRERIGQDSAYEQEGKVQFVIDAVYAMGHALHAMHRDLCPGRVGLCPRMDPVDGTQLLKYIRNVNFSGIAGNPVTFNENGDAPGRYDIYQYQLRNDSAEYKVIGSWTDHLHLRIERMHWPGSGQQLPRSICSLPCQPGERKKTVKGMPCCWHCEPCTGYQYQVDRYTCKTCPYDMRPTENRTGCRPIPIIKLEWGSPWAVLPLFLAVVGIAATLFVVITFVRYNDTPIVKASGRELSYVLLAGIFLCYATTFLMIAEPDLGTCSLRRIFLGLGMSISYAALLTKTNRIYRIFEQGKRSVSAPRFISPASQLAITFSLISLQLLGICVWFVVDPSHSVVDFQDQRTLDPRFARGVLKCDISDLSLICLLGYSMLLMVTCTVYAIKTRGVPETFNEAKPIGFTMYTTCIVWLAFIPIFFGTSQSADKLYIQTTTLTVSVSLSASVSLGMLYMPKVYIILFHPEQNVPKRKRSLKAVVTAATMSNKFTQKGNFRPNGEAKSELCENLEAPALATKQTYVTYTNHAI

| SMILES | Emax [%] | EC50 [nM] |
| --- | --- | --- |
| CN1C(=O)N(c2ccc(C#Cc3ccccc3)cc2)C(=O)CC1(C)c1ccccc1 (racemic) [Example 24, (6RS)-1,6-Dimethyl-6-phenyl-3-[4-(2-phenylethynyl)phenyl]hexahydropyrimidine-2,4-dione] | 126 | 254 |
| CCN1C(=O)N(c2c(F)cc(C#Cc3ccccc3)cc2F)C(=O)C[C@@]1(C)c1cccnc1 [Example 52, (6S)-3-[2,6-Difluoro-4-(2-phenylethynyl)phenyl]-1-ethyl-6-methyl-6-(3-pyridyl)hexahydropyrimidine-2,4-dione] | 99 | 48 |
| CN1C(=O)N(c2c(F)cc(C#Cc3cccnc3)cc2Cl)C(=O)CC1(C)C [Example 9, 3-[2-Chloro-6-fluoro-4-[2-(3-pyridyl)ethynyl]phenyl]-1,6,6-trimethyl-hexahydropyrimidine-2,4-dione] | 110 | 429 |
| CCN1C(=O)N(c2c(F)cc(C#Cc3cccnc3)cc2F)C(=O)CC1(C)c1ccccc1 (racemic) [Example 16, (6RS)-3-[2,6-Difluoro-4-[2-(3-pyridyl)ethynyl]phenyl]-1-ethyl-6-methyl-6-phenyl-hexahydropyrimidine-2,4-dione] | 136 | 105 |
| CN1C(=O)N(c2ccc(C#Cc3ccccc3)cc2Cl)C(=O)CC1(C)c1cccnc1 (racemic) [Example 47, (6RS)-3-[2-Chloro-4-(2-phenylethynyl)phenyl]-1,6-dimethyl-6-(3-pyridyl)hexahydropyrimidine-2,4-dione] | 121 | 132 |
| CN1C(=O)N(c2ncc(C#Cc3ccccc3)cc2C(F)(F)F)C(=O)CC1(C)c1ccccc1 (racemic) [Example 46, (6RS)-1,6-Dimethyl-6-phenyl-3-[5-(2-phenylethynyl)-3-(trifluoromethyl)-2-pyridyl]hexahydropyrimidine-2,4-dione] | 105 | 116 |
| CCn1cc([C@]2(C)CC(=O)N(c3c(F)cc(C#Cc4ccccc4)cc3F)C(=O)N2C)ccc1=O [Example 67, (6S)-3-[2,6-Difluoro-4-(2-phenylethynyl)phenyl]-6-(1-ethyl-6-oxo-3-pyridyl)-1,6-dimethyl-hexahydropyrimidine-2,4-dione] | 106 | 56 |
| CN1C(=O)N(c2c(F)cc(C#Cc3cccnc3)cc2Cl)C(=O)CC1(C)c1cccnc1 (racemic) [Example 33, (6RS)-3-[2-Chloro-6-fluoro-4-[2-(3-pyridyl)ethynyl]phenyl]-1,6-dimethyl-6-(3-pyridyl)hexahydropyrimidine-2,4-dione] | 142 | 171 |
| CN1C(=O)N(c2c(F)cc(C#Cc3ccccc3)cc2F)C(=O)C[C@@]1(C)c1cncc(F)c1 [Example 59, (6S)-3-[2,6-Difluoro-4-(2-phenylethynyl)phenyl]-6-(5-fluoro-3-pyridyl)-1,6-dimethyl-hexahydropyrimidine-2,4-dione] | 89 | 75 |
| CC12CC(=O)N(c3c(F)cc(C#Cc4ccccc4)cc3Cl)C(=O)N1CCNC2=O (racemic) [Example 86, (9aRS)-7-[2-Chloro-6-fluoro-4-(2-phenylethynyl)phenyl]-9a-methyl-2,3,4,9-tetrahydropyrazino[1,2-c]pyrimidine-1,6,8-trione] | 100 | 108 |
| CN1C(=O)N(c2ccc(C#Cc3ccccc3)cc2Cl)C(=O)CC1(C)C [Example 2, 3-[2-Chloro-4-(2-phenylethynyl)phenyl]-1,6,6-trimethyl-hexahydropyrimidine-2,4-dione] | 107 | 341 |
| CN1C(=O)N(c2c(F)cc(C#Cc3ccccc3)cc2F)C(=O)C[C@@]1(C)c1cnccn1 [Example 57, (6S)-3-[2,6-Difluoro-4-(2-phenylethynyl)phenyl]-1,6-dimethyl-6-pyrazin-2-yl-hexahydropyrimidine-2,4-dione] | 102 | 117 |
| CN1C(=O)N(c2c(F)cc(C#Cc3ccccc3)cc2F)C(=O)C[C@@]1(C)c1ccncc1 [Example 78, (6S)-3-[2,6-Difluoro-4-(2-phenylethynyl)phenyl]-1,6-dimethyl-6-(4-pyridyl)hexahydropyrimidine-2,4-dione] | 111 | 68 |
| CN1C(=O)N(c2c(F)cc(C#Cc3ccccc3)cc2F)C(=O)CC12CCCOC2 (racemic) [Example 17, (6RS)-3-[2,6-Difluoro-4-(2-phenylethynyl)phenyl]-1-methyl-8-oxa-1,3-diazaspiro[5.5]undecane-2,4-dione] | 129 | 183 |

The remaining lines, values ahead:

| Emax [%] | EC50 [nM] | SMILES |
| --- | --- | --- |
| 105 | 112 | CN1C(=O)N(c2c(F)cc(C#Cc3ccccc3)cc2F)C(=O)CC1(C)c1ccncc1 (racemic) [Example 28, (6RS)-3-[2,6-Difluoro-4-(2-phenylethynyl)phenyl]-1,6-dimethyl-6-(4-pyridyl)hexahydropyrimidine-2,4-dione] |
| 100 | 28 | COc1ccc([C@]2(C)CC(=O)N(c3c(F)cc(C#Cc4ccccc4)cc3F)C(=O)N2C)nn1 [Example 81, (6S)-3-[2,6-Difluoro-4-(2-phenylethynyl)phenyl]-6-(6-methoxypyridazin-3-yl)-1,6-dimethyl-hexahydropyrimidine-2,4-dione] |
| 105 | 148 | CN1C(=O)N(c2c(F)cc(C#Cc3ccccc3)cc2Cl)C(=O)C[C@@]1(C)c1cccnc1 [Example 71, (6S)-3-[2-Chloro-6-fluoro-4-(2-phenylethynyl)phenyl]-1,6-dimethyl-6-(3-pyridyl)hexahydropyrimidine-2,4-dione] |
| 108 | 55 | CN1C(=O)N(c2c(F)cc(C#Cc3ccccc3)cc2F)C(=O)C[C@@]1(C)c1ccn(C)c(=O)c1 [Example 75, (6S)-3-[2,6-Difluoro-4-(2-phenylethynyl)phenyl]-1,6-dimethyl-6-(1-methyl-2-oxo-4-pyridyl)hexahydropyrimidine-2,4-dione] |
| 113 | 38 | CN1C(=O)N(c2c(F)cc(C#Cc3ccccc3)cc2F)C(=O)C[C@@]1(C)c1ccnc(Cl)c1 [Example 60, (6S)-6-(2-Chloro-4-pyridyl)-3-[2,6-difluoro-4-(2-phenylethynyl)phenyl]-1,6-dimethyl-hexahydropyrimidine-2,4-dione] |
| 112 | 224 | CN1C(=O)N(c2c(F)cc(C#Cc3cccnc3)cc2F)C(=O)CC1(C)c1cccc(Cl)c1 (racemic) [Example 39, (6RS)-6-(3-Chlorophenyl)-3-[2,6-difluoro-4-[2-(3-pyridyl)ethynyl]phenyl]-1,6-dimethyl-hexahydropyrimidine-2,4-dione] |
| 97 | 131 | CC12CC(=O)N(c3c(F)cc(C#Cc4ccccc4)cc3F)C(=O)N1CCN(Cc1ccccc1)C2=O (racemic) [Example 37, (9aRS)-2-Benzyl-7-[2,6-difluoro-4-(2-phenylethynyl)phenyl]-9a-methyl-4,9-dihydro-3H-pyrazino[1,2-c]pyrimidine-1,6,8-trione] |
| 103 | 123 | COCC1(C)CC(=O)N(c2c(F)cc(C#Cc3ccccc3)cc2F)C(=O)N1C (racemic) [Example 30, (6RS)-3-[2,6-Difluoro-4-(2-phenylethynyl)phenyl]-6-(methoxymethyl)-1,6-dimethyl-hexahydropyrimidine-2,4-dione] |
| 137 | 73 | CCC1(CC)CC(=O)N(c2c(F)cc(C#Cc3ccccc3)cc2F)C(=O)N1C [Example 22, 3-[2,6-Difluoro-4-(2-phenylethynyl)phenyl]-6,6-diethyl-1-methyl-hexahydropyrimidine-2,4-dione] |
| 105 | 185 | CN1C(=O)N(c2c(F)cc(C#Cc3ccccc3)cc2F)C(=O)C[C@@]1(C)c1cnc(=O)[nH]c1 [Example 80, (6S)-3-[2,6-Difluoro-4-(2-phenylethynyl)phenyl]-1,6-dimethyl-6-(2-oxo-1H-pyrimidin-5-yl)hexahydropyrimidine-2,4-dione] |
| 116 | 165 | COc1cccc(C2(C)CC(=O)N(c3c(F)cc(C#Cc4cccnc4)cc3F)C(=O)N2C)c1 (racemic) [Example 42, (6RS)-3-[2,6-Difluoro-4-[2-(3-pyridyl)ethynyl]phenyl]-6-(3-methoxyphenyl)-1,6-dimethyl-hexahydropyrimidine-2,4-dione] |
